Earlier results in paper PMC6318333, “A chemical biology toolbox to study protein methyltransferases and epigenetic signaling” (Nature Communications, 2019).

Molecular target: T1, SMYD3 (Homo sapiens, UniProt Q9H7B4)
T1 sequence (Q9H7B4 1-428): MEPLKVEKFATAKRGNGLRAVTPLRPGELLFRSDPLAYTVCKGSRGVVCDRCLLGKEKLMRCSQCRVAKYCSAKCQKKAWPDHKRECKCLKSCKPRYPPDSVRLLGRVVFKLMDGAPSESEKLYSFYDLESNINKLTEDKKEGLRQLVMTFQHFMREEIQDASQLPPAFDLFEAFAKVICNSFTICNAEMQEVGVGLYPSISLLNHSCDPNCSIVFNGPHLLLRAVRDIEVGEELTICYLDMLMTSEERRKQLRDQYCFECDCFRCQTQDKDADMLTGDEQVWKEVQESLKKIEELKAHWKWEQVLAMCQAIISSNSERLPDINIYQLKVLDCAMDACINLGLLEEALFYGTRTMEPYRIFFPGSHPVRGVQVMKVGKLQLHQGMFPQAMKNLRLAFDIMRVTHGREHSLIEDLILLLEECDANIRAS
Assay: biochemical methyltransferase assay with recombinant protein
Details: read-out: In vitro IC50 or Kd

IC50: 88 nM
Substance: BAY-6035
